Article PMC11672299, “Conjugation of Polycationic Peptides Extends the Efficacy Spectrum of β‐Lactam Antibiotics” (Advanced Science, 2024)

What was measured:
HEK‐293 cells = test: Cytotoxicity assay (PrestoBlue viability); assay type: cell-based, human; details: HEK‐293, up to 512 µg mL^−1, 24 h
Protocol: (§1) To exclude any cytotoxic effects on mammalian cells prior to in vivo studies, the viability of the cell lines HEP‐G2 (hepatocellular carcinoma) and HEK‐293 (human […] embryonal kidney) after incubation with different concentrations of the β‐lactam–peptide conjugates were determined. For the viability assay, 10^4 cells per well were seeded in a 96‐well half area microplate and incubated overnight in a humidified 5% CO2 atmosphere at 37 °C. The next day, the conjugates were twofold serially diluted in PBS and added to the cells to obtain final concentrations ranging from 1–512 µg mL^−1. Cells were then incubated with the antibiotics in a humidified 5% CO2 atmosphere at 37 °C for a further 24 h. PrestoBlue HS Cell Viability Reagent was then added to the wells and the plates again were incubated in a humidified 5% CO2 atmosphere at 37 °C for 1 h. Afterwards, the absorption at 570 nm and 600 nm (reference) using an Infinite M200 PRO microplate reader (Tecan, Männedorf, Switzerland) was measured. Cell viability was calculated using the untreated control cells as a reference for 100% alive cells.

HEPG2 cells = test: Cytotoxicity assay (PrestoBlue viability); assay type: cell-based, human; details: HEPG2, up to 512 µg mL^−1, 24 h
Protocol: as §1

PBP5 = test: Gel‐based PBP affinity assay (Bocillin FL competition); assay type: binding; details: PBPs from vancomycin‐resistant E. faecalis; compared with parent; at concentrations considerably higher than MICs
PBP2A = target: T1, PBP2A (Bacillus subtilis, UniProt P54488); test: as above; assay type: binding; details: B. subtilis membrane fractions, competition with Bocillin FL penicillin; compared with parent β‐lactam
T1 construct: endogenous in cells; host or cells: B. subtilis DSM 10, extracted membrane protein fraction
T1 sequence (P54488 whole entry): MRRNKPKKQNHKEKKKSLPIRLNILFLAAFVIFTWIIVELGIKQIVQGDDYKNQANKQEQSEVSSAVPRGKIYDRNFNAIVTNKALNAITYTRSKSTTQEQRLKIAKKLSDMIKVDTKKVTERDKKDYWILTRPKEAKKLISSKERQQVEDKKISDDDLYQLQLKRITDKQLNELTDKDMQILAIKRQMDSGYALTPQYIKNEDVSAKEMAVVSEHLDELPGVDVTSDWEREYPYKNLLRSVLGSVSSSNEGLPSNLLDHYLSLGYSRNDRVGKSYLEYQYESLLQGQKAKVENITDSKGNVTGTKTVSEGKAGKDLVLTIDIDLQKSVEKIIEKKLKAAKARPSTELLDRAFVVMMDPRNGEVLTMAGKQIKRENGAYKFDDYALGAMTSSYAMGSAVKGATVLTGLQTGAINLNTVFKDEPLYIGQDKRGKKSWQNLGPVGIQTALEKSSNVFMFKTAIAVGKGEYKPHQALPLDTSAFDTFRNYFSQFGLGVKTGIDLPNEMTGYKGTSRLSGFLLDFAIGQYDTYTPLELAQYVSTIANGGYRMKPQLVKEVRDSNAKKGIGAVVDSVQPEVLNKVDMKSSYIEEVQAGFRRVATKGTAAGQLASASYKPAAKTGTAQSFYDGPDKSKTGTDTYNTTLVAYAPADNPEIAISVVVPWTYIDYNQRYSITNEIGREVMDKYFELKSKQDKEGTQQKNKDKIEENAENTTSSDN

[1] = system: VRE E. faecium UW 18 830 (vanA); test: Systemic infection VRE mouse model; assay type: in vivo, female Balb/c mice; details: VRE E. faecium UW18830 infected Balb/c mice, 30 mg kg^−1 day^−1 i.v., 48 h p.i., compared to CTZ or PBS
Source text: The animal infection studies were approved by the local government of Lower Franconia, Germany (approval number 55.2.2‐2532.2‐1283) and performed in strict accordance with the guidelines for animal care and experimentation of the German Animal Protection Law and the DIRECTIVE 2010/63/EU of the EU. The animals were housed in individually ventilated cages under standardized lighting conditions and had ad libitum access to food and water. To evaluate the in vivo activity during systemic infection, female Balb/c mice were infected with 5×10^7 CFU of VRE E. faecium UW 18 830 (vanA) by tail vein injection. Beginning at 1 h p.i., then repeatedly every 12 h, mice received intravenously either CTZ (30 mg kg body weight^−1 day^−1), CTZ‐R6 (30 mg kg body weight^−1 day^−1) or sterile PBS. The livers were recovered 48 h p.i. (12 h after the last treatment) and frozen at – 80 °C until further processing. For the determination of the bacterial burden, the livers were thawed, homogenized in PBS and plated in serial dilutions on brain heart infusion agar plates. CFU were counted after overnight incubation at 37 °C.

CC(C)(O/N=C(\C(=O)N[C@@H]1C(=O)N2C(C(=O)[O-])=C(C[n+]3ccccc3)CS[C@H]12)c1csc(N)n1)C(=O)O [CTZ, ceftazidime, reference compound]
cytotoxicity (cell viability) (HEK‐293 cells): no significant cytotoxicity
cytotoxicity (cell viability) (HEPG2 cells): no significant cytotoxicity

CC(C)(O/N=C(\C(=O)N[C@@H]1C(=O)N2C(C(=O)[O-])=C(C[n+]3ccccc3)CS[C@H]12)c1csc(N)n1)C(=O)NCCCCCCN1C(=O)CC(SC[C@H](NC(=O)[C@H](CCCNC(=N)N)NC(=O)[C@H](CCCNC(=N)N)NC(=O)[C@H](CCCNC(=N)N)NC(=O)[C@H](CCCNC(=N)N)NC(=O)[C@H](CCCNC(=N)N)NC(=O)[C@@H](N)CCCNC(=N)N)C(N)=O)C1=O (some centres unmarked) [CTZ-R6]
binding to PBP5 (PBP5): slightly improved binding
affinity to PBP2A (PBP2A): significantly increased
bacterial burden in the liver (CFU) [1]: reduced the bacterial burden in the liver
